The source made the active and inactive calls.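 The calls were made as follows: active = at least 70% inhibition of the phosphatase PP5 at 50 µM; inactive = inhibition below 70% at 50 µM.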
molecular target: Serine/threonine-protein phosphatase 5 (Homo sapiens) (UniProt P53041); assay: PP5 phosphatase inhibitors at single dose, late-stage follow-up, selectivity assay for PP1 inhibitor project, biochemical, fluorescence, OMFP substrate, powder samples (AID 652224); conditions: purified PP5c, OMFP dephosphorylation fluorescence; at 50 µM; stronger effect = higher value
Sequence (P53041 whole entry, looked up): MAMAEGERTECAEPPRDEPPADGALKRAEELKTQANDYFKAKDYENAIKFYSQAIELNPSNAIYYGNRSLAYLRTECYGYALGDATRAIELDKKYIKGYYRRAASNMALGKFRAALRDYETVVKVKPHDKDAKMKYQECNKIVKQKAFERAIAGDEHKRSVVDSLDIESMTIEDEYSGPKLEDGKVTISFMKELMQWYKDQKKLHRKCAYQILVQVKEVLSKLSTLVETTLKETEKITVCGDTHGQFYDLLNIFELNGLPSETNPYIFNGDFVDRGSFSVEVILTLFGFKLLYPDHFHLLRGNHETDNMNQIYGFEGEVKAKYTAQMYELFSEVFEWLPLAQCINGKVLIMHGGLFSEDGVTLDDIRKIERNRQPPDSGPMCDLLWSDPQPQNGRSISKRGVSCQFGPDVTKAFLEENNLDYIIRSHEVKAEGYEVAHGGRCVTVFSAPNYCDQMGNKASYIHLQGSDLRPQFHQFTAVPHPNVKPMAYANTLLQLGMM

Structure (SMILES) | inhibition
CN1CCN(C(c2ncccn2)c2ccc3cccnc3c2O)CC1 (stereo unspecified) | -0.77% (inactive)
CN1CCN(C(c2ccc(C(F)(F)F)cn2)c2ccc3cccnc3c2O)CC1 (stereo unspecified) | 61.9% (inactive)
Oc1c(Cc2ccccn2)ccc2cccnc12 | 27% (inactive)
CN1CCC(NC(c2ccccn2)c2ccc3cccnc3c2O)CC1 (stereo unspecified) | 9.57% (inactive)
Cc1cccc(C(c2ccc3cccnc3c2O)N2CCN(C)CC2)n1 (stereo unspecified) | -2.26% (inactive)
Cc1ccc2ccc(C(c3ccccn3)N3CCN(C)CC3)c(O)c2n1 (stereo unspecified) | 24.3% (inactive)
Oc1c(C(c2ccccn2)N2CCCC2)ccc2cccnc12 (stereo unspecified) | 45.2% (inactive)
Oc1c(C(c2ccccn2)N2CCNCC2)cc(Cl)c2cccnc12 (stereo unspecified) | 14.4% (inactive)
CN1CCN(C(c2ccc3cccnc3c2O)c2ncccc2C(F)(F)F)CC1 (stereo unspecified) | 29.4% (inactive)
COCOc1c(C(c2ccccn2)N2CCN(C)CC2)ccc2cccnc12 (stereo unspecified) | -6.11% (inactive)
Oc1c(C(c2ccccn2)N2CCN(c3ccccc3F)CC2)cc(Cl)c2cccnc12 (stereo unspecified) | 27% (inactive)
CCOC(c1ccccn1)c1cc(Cl)c2cccnc2c1O (stereo unspecified) | 21.5% (inactive)
Cc1ccc(C(c2ccc3cccnc3c2O)N2CCN(C)CC2)nc1 (stereo unspecified) | 66.2% (inactive)
Cc1cccnc1C(c1ccc2cccnc2c1O)N1CCN(C)CC1 (stereo unspecified) | 66.1% (inactive)
CC1CCN(C(c2ccccn2)c2cc(Cl)c3cccnc3c2O)CC1 (stereo unspecified) | 68.5% (inactive)
COc1ccc(C(c2ccc3cccnc3c2O)N2CCN(C)CC2)nc1 (stereo unspecified) | 48.5% (inactive)
COc1cccc(C(c2ccc3cccnc3c2O)N2CCN(C)CC2)n1 (stereo unspecified) | -1.09% (inactive)
Oc1c(C(NC2CCCCC2)c2ccccn2)ccc2cccnc12 (stereo unspecified) | 36.3% (inactive)
Oc1c(C(c2ccccn2)N2CCC(Cc3ccccc3)CC2)cc(Cl)c2cccnc12 (stereo unspecified) | 24.6% (inactive)
Oc1c(C(c2ccccn2)N2CCOCC2)cc(Cl)c2cccnc12 (stereo unspecified) | 72.5%
CN1CCN(C(c2ccccn2)c2ccc3cccnc3c2O)CC1 (stereo unspecified) | 49.2% (inactive)
CC(C)(C)OC(=O)N1CCN(C(c2ccccn2)c2cc(Cl)c3cccnc3c2O)CC1 (stereo unspecified) | 37.1% (inactive)

The next lines start with the values.

inhibition | Structure (SMILES)
21.3% (inactive) | Oc1c(CN2CCN(c3ccccc3)CC2)cc(Cl)c2cccnc12
9.09% (inactive) | CN1CCN(C(c2ccncc2)c2cc(Cl)c3cccnc3c2O)CC1 (stereo unspecified)
4.27% (inactive) | CN1CCN(C(c2ccccn2)c2cc(Cl)ccc2O)CC1 (stereo unspecified)
15.5% (inactive) | CN1CCN(C(c2ccccc2)c2cc(Cl)c3cccnc3c2O)CC1 (stereo unspecified)
54.8% (inactive) | Cc1ccnc(C(c2ccc3cccnc3c2O)N2CCN(C)CC2)c1 (stereo unspecified)
58.8% (inactive) | COc1ccnc(C(c2ccc3cccnc3c2O)N2CCN(C)CC2)c1 (stereo unspecified)
9.84% (inactive) | CN1CCN(C(c2cccnc2)c2cc(Cl)c3cccnc3c2O)CC1 (stereo unspecified)
35% (inactive) | CN1CCN(C(c2nccs2)c2cc(Cl)c3cccnc3c2O)CC1 (stereo unspecified)
67.9% (inactive) | CCN1CCN(C(c2ccccn2)c2cc(Cl)c3cccnc3c2O)CC1 (stereo unspecified)
32.4% (inactive) | Oc1c(CN2CCN(c3ccccn3)CC2)cc(Cl)c2cccnc12
75.8% | CN1CCN(C(c2ccccn2)c2cc(Cl)c3cccnc3c2O)CC1 (stereo unspecified)
20.1% (inactive) | CN1CCN(Cc2cc(Cl)c3cccnc3c2O)CC1
24.7% (inactive) | CN1CCN(C(c2cccs2)c2cc(Cl)c3cccnc3c2O)CC1 (stereo unspecified)
12.1% (inactive) | CN1CCN(C(c2ccccn2)c2cc(Cl)c3ccccc3c2O)CC1 (stereo unspecified)
